Measurements taken from patent publication US4512986A, “Progrestationally active steroids” (priority 1983, dated 1985).
“Also recorded” adds a separate entry of the source. Where two headings read alike, the source gives them in different places.

How the values were obtained:
[1] = system: androgen target organs of castrate immature male rats; assay: Anti-androgenic activity in the castrate immature rat assay; type: in vivo; conditions: for anti-androgenic activity, in words: with testosterone sc 400 μg/rat/day, doses up to 400 μg/rat/day (progestagen oral; progesterone sc)
Procedure: The oral anti-androgenic activity of 6-methyl-6-dehydro-17α-ethynylprogesterone was evaluated in the castrate immature male rat assay [Lerner et al., Proc. Soc. […] The assay is briefly described in the footnotes to Table 11.
*This assay employs castrate immature rats. For methods refer to Lerner,
L. J., A. Bianchi and A. Borman, Proc. Soc.
**Groups of rats (7/group) were given daily injections of 0.3 ml sesame
oil (control) or compound (in 0.3 ml sesame oil) for 7 days. Some groups
also concurrently received progestational compounds by the sc or oral
route of administration in order to evaluate antiandrogenic activity. One
day after the final doses, the animals were sacrificed and the androgen
target organs indicated were weighed.
***Statistically significant (p < 0.05) lower organ weights versus the
testosterone, sc, (400 μg/rat/day) group as determined by Analysis of
Variance coupled with Duncan's Multiple Range Test.

[2] = molecular target: T1, Cytosol Progesterone Receptor of the Estrogen-primed Immature Rabbit Uterus (Oryctolagus cuniculus, UniProt P06186); assay: Relative binding affinity for progesterone receptor (competition with 3H-progesterone); design: species or system rabbit (New Zealand White); conditions: 16-18 hour incubation, progesterone = 100
T1 construct: cytosol progesterone receptor of the estrogen-primed immature rabbit uterus; tissue Dutchland Laboratories, Inc., Denver, Pa (animals); host or cells: uterus cytosol of estradiol-treated immature female New Zealand White rabbits
T1 sequence (P06186 1-930): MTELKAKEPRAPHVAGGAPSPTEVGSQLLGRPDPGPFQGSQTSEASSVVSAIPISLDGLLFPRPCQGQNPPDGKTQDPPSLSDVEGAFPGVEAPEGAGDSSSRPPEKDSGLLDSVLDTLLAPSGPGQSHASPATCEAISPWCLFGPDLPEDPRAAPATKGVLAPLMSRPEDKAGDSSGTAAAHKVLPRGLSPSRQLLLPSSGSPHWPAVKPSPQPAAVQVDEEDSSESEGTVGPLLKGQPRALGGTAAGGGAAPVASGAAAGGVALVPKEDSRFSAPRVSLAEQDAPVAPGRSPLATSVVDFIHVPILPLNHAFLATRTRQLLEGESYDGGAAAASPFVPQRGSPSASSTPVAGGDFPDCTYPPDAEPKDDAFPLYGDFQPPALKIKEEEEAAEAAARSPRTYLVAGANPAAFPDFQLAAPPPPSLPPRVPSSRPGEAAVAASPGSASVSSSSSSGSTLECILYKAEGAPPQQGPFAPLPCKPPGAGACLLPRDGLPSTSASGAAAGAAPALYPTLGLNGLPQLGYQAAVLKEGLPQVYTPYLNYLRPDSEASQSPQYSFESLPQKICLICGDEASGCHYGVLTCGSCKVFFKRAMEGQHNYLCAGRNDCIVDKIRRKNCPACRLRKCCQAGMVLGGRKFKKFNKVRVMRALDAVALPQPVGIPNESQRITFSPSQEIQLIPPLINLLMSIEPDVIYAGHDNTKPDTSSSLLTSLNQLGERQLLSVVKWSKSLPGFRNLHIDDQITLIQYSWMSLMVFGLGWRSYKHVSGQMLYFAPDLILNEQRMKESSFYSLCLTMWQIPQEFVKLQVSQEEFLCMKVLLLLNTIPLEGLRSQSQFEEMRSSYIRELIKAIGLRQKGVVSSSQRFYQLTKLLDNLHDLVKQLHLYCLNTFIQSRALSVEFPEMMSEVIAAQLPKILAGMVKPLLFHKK
Procedure: RBA values recorded at 0° C. after short incubation times (e.g., 2 hr) mainly reflect differences in the association rate constants of the competing ligands, whereas those measured after long incubation times (e.g., 16 to 24 hr) and/or higher temperatures predominantly are influenced by differences in the dissociation rate constants of the competing ligands. RBA's determined after short incubation times primarily reflect the association of the competitor compared to the natural hormone. Conversely, RBA's measured after long incubation times reflect the dissociation rate of the competitor compared to the natural hormone.
The assay components are combined, allowed to equilibrate, and unbound radioactivity removed by charcoal adsorption.
Animal species. Immature female New Zealand White rabbits weighing 0.8 to 1.0 kg (Dutchland Laboratories, Inc., Denver, Pa).
Pretreatment. Subcutaneous treatment with 15 μg 17β-estradiol/0.6 ml sesame oil each morning (0830 to 0930 hr) for three days. Animals sacrificed 24 hr after final injection.
Tissue. Uterus; each uterus weighed about 1.0 g and two or three uteri were pooled for each assay.
Buffer. (A) 0.01M TES, pH 7.4, 1 mM EDTA, 0.012M thioglycerol and 30% glycerol for cytosol preparation and ^3 H-steroid, unlabeled hormone and compound solutions. (B) 0.01M TES, pH 7.4, 1 mM EDTA and 0.012M thioglycerol for charcoal solution.
Homogenization. Five or six 5-second bursts with 30 second cooling periods between bursts using Brinkman Polytron Pt. 10 at 3.5 rheostat setting.
Temperature. 0°-4° C. for all steps.
Centrifugation. 45,000 rpm for 1 hr, 50 Ti rotor, Beckman L8-80 ultracentrifuge.
Incubation. 16-18 hr at 4°-6° C.
Concentations. 1×10^-10 M to 1×10^-5 M (7 concentrations).
Method. Charcoal adsorption method used to remove unbound radioactivity. Five-tenths ml of dextran-coated charcoal (0.5% Norit A and 0.05% dextran T-70) added to all tubes except total radioactivity tubes (0.5 ml buffer [B] added), tubes vortexed 3-5 sec, allowed to sit for 10 minutes and centrifuged 10 minutes at 2000 rpm in Beckman TJ-6 centrifuge at 0°-4° C.
Data Interpretation. […] The relative binding affinity (RBA) of each compound was calculated by using the following equation. [formula] where

[3] = system: uterine endometrium of estrone-primed immature rabbits; assay: Clauberg assay (progestational activity, McPhail); type: in vivo, rabbit (New Zealand White); conditions: for Uterine Weight (X ± S.D.) / McPhail Index (0-4) (X ± S.D.): oral; for McPhail Index (0-4) (X ± S.D.): 0 none, 4 maximal
[4] = system: endometrium of estrogen-primed ovariectomized or climacteric women; conditions: oral; cited from earlier work
[5] = system: estrogen-primed immature rabbits; conditions: cited from earlier work
[6] = general knowledge; cited from earlier work
[7] = oral 25 μg/rat daily + testosterone sc 400
[8] = oral 100 μg/rat daily + testosterone sc 400
[9] = oral 400 μg/rat daily + testosterone sc 400

SMILES	Levator Ani weight (X ± S.D.) [1, 7]	Seminal Vesicles weight (X ± S.D.) [1, 7]	Ventral Prostate weight (X ± S.D.) [1, 7]	Levator Ani weight (X ± S.D.) [1, 8]	Seminal Vesicles weight (X ± S.D.) [1, 8]	Ventral Prostate weight (X ± S.D.) [1, 8]	Levator Ani weight (X ± S.D.) [1, 9]	Seminal Vesicles weight (X ± S.D.) [1, 9]	Ventral Prostate weight (X ± S.D.) [1, 9]	Uterine Weight (X ± S.D.) ([3]; 5 μg/rabbit daily)	McPhail Index (0-4) (X ± S.D.) ([3]; 5 μg/rabbit daily)	Uterine Weight (X ± S.D.) ([3]; 10 μg/rabbit daily)	McPhail Index (0-4) (X ± S.D.) ([3]; 10 μg/rabbit daily)	Uterine Weight (X ± S.D.) ([3]; 25 μg/rabbit daily)	McPhail Index (0-4) (X ± S.D.) ([3]; 25 μg/rabbit daily)	Uterine Weight (X ± S.D.) ([3]; 50 μg/rabbit daily)	McPhail Index (0-4) (X ± S.D.) ([3]; 50 μg/rabbit daily)	Threshold or effective dose, Kaufman Assay [4]	Threshold or effective dose, Clauberg Assay ([5]; oral)	Threshold or effective dose, Clauberg Assay ([5]; s.c. (i.m.))	other results
C#C[C@]1(C(C)=O)CC[C@H]2[C@@H]3C=C(C)C4=CC(=O)CC[C@]4(C)[C@H]3CC[C@@]21C [17α-Ethynyl-6-methylpregna-4,6-diene-3,20-dione]	63 ± 13 mg	141 ± 43 mg	61 ± 13 mg	68 ± 13 mg	141 ± 9 mg	63 ± 25 mg	66 ± 9 mg	129 ± 37 mg	43 ± 12 mg	0.99 ± 0.34 g	0.00 ± 0.0	1.11 ± 0.23 g	0.17 ± 0.12	2.93 ± 1.33 g	3.33 ± 0.62	3.59 ± 0.43 g	4.00 ± 0.00	–	–	–	anti-androgenic activity, in words ([1]; listed as 6-methyl-6-dehydro-17α-ethynylprogesterone): significant depression of ventral prostate weight; also recorded: Seminal vesicle weight also was depressed at the same dose level, but the decrease was not statistically significant; RBA ([2]; Assay 6): 104%; potency relative to levonorgestrel, in words ([3]; both given orally): equipotent with levonorgestrel; progestational potency relative to subcutaneous progesterone, in words ([3]; compound given orally, progesterone sc): more than eight times as potent as progesterone administered subcutaneously
C#C[C@]1(O)CC[C@H]2[C@@H]3CCC4=CC(=O)CC[C@@H]4[C@H]3CC[C@@]21CC [Levonorgestrel, reference compound]	–	–	–	–	–	–	–	–	–	1.30 ± 0.49 g	0.08 ± 0.12	0.86 ± 0.04 g	0.04 ± 0.06	2.59 ± 0.81 g	3.71 ± 0.16	1.95 ± 0.41 g	2.92 ± 0.42	6 mg/cycle	0.03 mg/animal	0.01-0.03 mg/animal	RBA ([2]; Assay 1, 5α-dihydro-17α-ethynyl: lot 1): 111%; Uterine Weight (X ± S.D.) ([3]; 100 μg/rabbit daily): 3.57 ± 1.08 g; McPhail Index (0-4) (X ± S.D.) ([3]; 100 μg/rabbit daily): 3.90 ± 0.12; Uterine Weight (X ± S.D.) ([3]; 200 μg/rabbit daily): 2.80 ± 0.14 g; McPhail Index (0-4) (X ± S.D.) ([3]; 200 μg/rabbit daily): 4.00 ± 0.00; Uterine Weight (X ± S.D.) ([3]; 400 μg/rabbit daily): 2.67 ± 0.80 g; McPhail Index (0-4) (X ± S.D.) ([3]; 400 μg/rabbit daily): 3.70 ± 0.47
CC(=O)O[C@]1(C(C)=O)CC[C@H]2[C@@H]3C=C(C)C4=CC(=O)CC[C@]4(C)[C@H]3CC[C@@]21C [Megestrol Acetate, 6-Methyl-6-dehydro-17α-acetoxyprogesterone]	50 ± 8 mg	125 ± 23 mg	42 ± 20 mg	55 ± 12 mg	128 ± 36 mg	54 ± 13 mg	65 ± 12 mg	120 ± 21 mg	48 ± 15 mg	–	–	–	–	–	–	–	–	35-50 mg/cycle	0.03 mg/animal	0.01-0.03 mg/animal	anti-androgenic activity, in words [1]: significant anti-androgenic activity; oral progestational activity, in words [6]: potent orally active progestational compounds
C#C[C@]1(O)CC[C@H]2[C@@H]3CCC4=CC(=O)CC[C@@H]4[C@H]3CC[C@@]21C [Norethisterone]	–	–	–	–	–	–	–	–	–	–	–	–	–	–	–	–	–	100-150 mg/cycle	–	0.1 mg/animal	–
C#C[C@]1(O)CC[C@H]2[C@@H]3CCC4=C(CCC(=O)C4)[C@H]3CC[C@@]21C [Norethynodrel]	–	–	–	–	–	–	–	–	–	–	–	–	–	–	–	–	–	150-200 mg/cycle	0.3 mg/animal	0.3 mg/animal	–
